Test results published in PMC3920255 (Toxins, 2013).
Values after ≈ are worked out from the molar mass of the structure shown. Numbered stars: 1 amine (or outer) side, 2 acyl side, 3 side chain; on linkers, the order of the positions; unused ones are H or OH. Bridge positions count the residues as written; N and C are the ends. Square brackets hold non-standard residues; d marks the D form. Peptide text beside a SMILES is read from it. Adda = CO[C@@H](Cc1ccccc1)[C@@H](C)/C=C(C)/C=C/[C@H](N[*:1])[C@H](C)C(=O)[*:2]; dAsp(3S-Me) = C[C@H](C(=O)[*:3])[C@@H](N[*:1])C(=O)[*:2]; d(γGlu) = O=C(O)[C@@H](CCC(=O)[*:2])N[*:1]; NMeDha = C=C(NC)C(=O)O; Dha = C=C(N)C(=O)O

Test system: primary rat hepatocytes
Settings: cited from earlier work

Row | SMILES | IC50 of MC-LR to primary rat hepatocytes, earlier study [µg/mL]
1 | C=C1C(=O)N[C@H](C)C(=O)N[C@@H](CC(C)C)C(=O)N[C@@H](C(=O)O)[C@H](C)C(=O)N[C@@H](CCCNC(=N)N)C(=O)N[C@@H](/C=C/C(C)=C/[C@H](C)[C@H](Cc2ccccc2)OC)[C@H](C)C(=O)N[C@@H](C(=O)O)CCC(=O)N1C [No.1, MC-LR, reference compound] (R[Adda][d(γGlu)][NMeDha][dA]L[dAsp(3S-Me)]-OH; lactam N-7) | 0.048

Test system: primary cultured rat hepatocytes
Settings: not given

Row | SMILES | IC50 (concentration showing 50% cell viability) [µg/mL]
2 | C=C1C(=O)N[C@H](C)C(=O)N[C@@H](CC(C)C)C(=O)N[C@@H](C(=O)O)[C@H](C)C(=O)N[C@@H](CCCNC(=N)N)C(=O)N[C@@H](/C=C/C(C)=C/[C@H](C)[C@H](Cc2ccccc2)OC)[C@H](C)C(=O)N[C@@H](C(=O)O)CCC(=O)N1C [No.1, MC-LR, reference compound] (R[Adda][d(γGlu)][NMeDha][dA]L[dAsp(3S-Me)]-OH; lactam N-7) | 0.800 (≈ 0.804 µM)
3 | C=C1NC(=O)CC[C@H](C(=O)O)NC(=O)[C@@H](C)[C@H](/C=C/C(C)=C/[C@H](C)[C@H](Cc2ccccc2)OC)NC(=O)[C@H](CCCNC(=N)N)NC(=O)[C@@H](C)[C@H](C(=O)O)NC(=O)[C@H](CC(C)C)NC(=O)[C@@H](C)NC1=O [No.2, [Dha^7] MC-LR] (R[Adda][d(γGlu)][Dha][dA]L[dAsp(3S-Me)]-OH; lactam N-7) | 0.217 (≈ 0.221 µM)
4 | C=C1C(=O)N[C@H](C)C(=O)N[C@@H](CC(C)C)C(=O)N[C@@H](C(=O)O)CC(=O)N[C@@H](CCCNC(=N)N)C(=O)N[C@@H](/C=C/C(C)=C/[C@H](C)[C@H](Cc2ccccc2)OC)[C@H](C)C(=O)N[C@@H](C(=O)O)CCC(=O)N1C [No.3, [D-Asp^3] MC-LR] | 0.217 (≈ 0.221 µM)
5 | C=C1NC(=O)CC[C@H](C(=O)O)NC(=O)[C@@H](C)[C@H](/C=C/C(C)=C/[C@H](C)[C@H](Cc2ccccc2)OC)NC(=O)[C@H](CCCNC(=N)N)NC(=O)C[C@H](C(=O)O)NC(=O)[C@H](CC(C)C)NC(=O)[C@@H](C)NC1=O [No.4, [D-Asp^3, Dha^7] MC-LR] | 0.217 (≈ 0.224 µM)
6 | C/C=C1/NC(=O)CC[C@H](C(=O)O)NC(=O)[C@@H](C)[C@H](/C=C/C(C)=C/[C@H](C)[C@H](Cc2ccccc2)OC)NC(=O)[C@H](CCCNC(=N)N)NC(=O)C[C@H](C(=O)O)NC(=O)[C@H](CC(C)C)NC(=O)[C@@H](C)NC1=O [No.5, [D-Asp^3, E-Dhb^7] MC-LR] | 0.133 (≈ 0.136 µM)
7 | C/C=C1\NC(=O)CC[C@H](C(=O)O)NC(=O)[C@@H](C)[C@H](/C=C/C(C)=C/[C@H](C)[C@H](Cc2ccccc2)OC)NC(=O)[C@H](CCCNC(=N)N)NC(=O)C[C@H](C(=O)O)NC(=O)[C@H](CC(C)C)NC(=O)[C@@H](C)NC1=O [No.6, [D-Asp^3, Z-Dhb^7] MC-LR] | 0.053 (≈ 0.054 µM)
8 | C=C1C(=O)N[C@H](C)C(=O)N[C@@H](Cc2ccc(O)cc2)C(=O)N[C@@H](C(=O)O)[C@H](C)C(=O)N[C@@H](CCCNC(=N)N)C(=O)N[C@@H](/C=C/C(C)=C/[C@H](C)[C@H](Cc2ccccc2)OC)[C@H](C)C(=O)N[C@@H](C(=O)O)CCC(=O)N1C [No.7, MC-YR] (R[Adda][d(γGlu)][NMeDha][dA]Y[dAsp(3S-Me)]-OH; lactam N-7) | 1.48 (≈ 1.42 µM)
9 | C=C1NC(=O)CC[C@H](C(=O)O)NC(=O)[C@@H](C)[C@H](/C=C/C(C)=C/[C@H](C)[C@H](Cc2ccccc2)OC)NC(=O)[C@H](CCCNC(=N)N)NC(=O)[C@@H](C)[C@H](C(=O)O)NC(=O)[C@H](Cc2ccc(O)cc2)NC(=O)[C@@H](C)NC1=O [No.8, [Dha^7] MC-YR] (R[Adda][d(γGlu)][Dha][dA]Y[dAsp(3S-Me)]-OH; lactam N-7) | 0.418 (≈ 0.405 µM)
10 | C=C1C(=O)N[C@H](C)C(=O)N[C@@H](CCCNC(=N)N)C(=O)N[C@@H](C(=O)O)[C@H](C)C(=O)N[C@@H](CCCNC(=N)N)C(=O)N[C@@H](/C=C/C(C)=C/[C@H](C)[C@H](Cc2ccccc2)OC)[C@H](C)C(=O)N[C@@H](C(=O)O)CCC(=O)N1C [No.12, MC-RR] (R[Adda][d(γGlu)][NMeDha][dA]R[dAsp(3S-Me)]-OH; lactam N-7) | >10
11 | C=C1NC(=O)CC[C@H](C(=O)O)NC(=O)[C@@H](C)[C@H](/C=C/C(C)=C/[C@H](C)[C@H](Cc2ccccc2)OC)NC(=O)[C@H](CCCNC(=N)N)NC(=O)[C@@H](C)[C@H](C(=O)O)NC(=O)[C@H](CCCNC(=N)N)NC(=O)[C@@H](C)NC1=O [No.14, [Dha^7] MC-RR] (R[Adda][d(γGlu)][Dha][dA]R[dAsp(3S-Me)]-OH; lactam N-7) | 5.33 (≈ 5.2 µM)
12 | C=C1NC(=O)CC[C@H](C(=O)O)NC(=O)[C@@H](C)[C@H](/C=C/C(C)=C/[C@H](C)[C@H](Cc2ccccc2)OC)NC(=O)[C@H](CCCNC(=N)N)NC(=O)C[C@H](C(=O)O)NC(=O)[C@H](CCCNC(=N)N)NC(=O)[C@@H](C)NC1=O [No.15, [D-Asp^3, Dha^7] MC-RR] | 4.11 (≈ 4.07 µM)

Same assay, conditions: 72 h

Row | SMILES | IC50 (concentration showing 50% cell viability) [µg/mL]
13 | C=C1C(=O)N[C@H](C)C(=O)N[C@@H](CCc2ccc(O)cc2)C(=O)N[C@@H](C(=O)O)CC(=O)N[C@@H](CCCNC(=N)N)C(=O)N[C@@H](/C=C/C(C)=C/[C@H](C)[C@H](Cc2ccccc2)OC)[C@H](C)C(=O)N[C@@H](C(=O)O)CCC(=O)N1C [No.9, [D-Asp^3] MC-HtyR] | 0.347 (≈ 0.332 µM)
14 | C/C=C1/NC(=O)CC[C@H](C(=O)O)NC(=O)[C@@H](C)[C@H](/C=C/C(C)=C/[C@H](C)[C@H](Cc2ccccc2)OC)NC(=O)[C@H](CCCNC(=N)N)NC(=O)C[C@H](C(=O)O)NC(=O)[C@H](CCc2ccc(O)cc2)NC(=O)[C@@H](C)NC1=O [No.10, [D-Asp^3, E-Dhb^7] MC-HtyR] | 0.327 (≈ 0.313 µM)
15 | C/C=C1\NC(=O)CC[C@H](C(=O)O)NC(=O)[C@@H](C)[C@H](/C=C/C(C)=C/[C@H](C)[C@H](Cc2ccccc2)OC)NC(=O)[C@H](CCCNC(=N)N)NC(=O)C[C@H](C(=O)O)NC(=O)[C@H](CCc2ccc(O)cc2)NC(=O)[C@@H](C)NC1=O [No.11, [D-Asp^3, Z-Dhb^7] MC-HtyR] | 0.120 (≈ 0.115 µM)
